Source: ChEMBL document CHEMBL1833878, “Cyclodepsipeptides, sesquiterpenoids, and other cytotoxic metabolites from the filamentous fungus Trichothecium sp. (MSX 51320)” (J Nat Prod, 2011)
Values after ≈ are worked out from the molar mass of the structure shown. *1 amine or outer side, *2 acyl side, *3 side chain or, on linkers, in order; H or OH if unused. Where a SMILES comes first, the peptide text is derived from it. [ ]: non-standard residue; d: D form. X1 = CC(C)(O)[C@H](O[*:1])C(=O)[*:2]; dNMeF = CN[C@H](Cc1ccccc1)C(=O)O; Hica(2S) = CC(C)C[C@H](O)C(=O)O; NMeL = CN[C@@H](CC(C)C)C(=O)O; Hiv = CC(C)[C@H](O)C(=O)O; NMeA = CN[C@@H](C)C(=O)O

Experiments:
[1] = system: MCF7; assay: Cytotoxicity against human MCF7 cells; assay type: functional, cell-based
[2] = system: NCI-H460; assay: Cytotoxicity against human NCI-H460 cells; assay type: functional, cell-based
[3] = system: SF-268; assay: Cytotoxicity against human SF268 cells; assay type: functional, cell-based
[4] = Cytotoxicity against human HTB-177 cells; assay type: functional, cell-based
[5] = system: HT-29; assay: Cytotoxicity against human HT-29 cells; assay type: functional, cell-based
[6] = Cytotoxicity against human HTB-38 cells; assay type: functional, cell-based
[7] = system: MDA-MB-435; assay: Cytotoxicity against human MDA-MB-435 cells; assay type: functional, cell-based
[8] = Cytotoxicity against human HTB-129 cells; assay type: functional, cell-based
[9] = system: Staphylococcus epidermidis; assay: Antibacterial activity against Staphylococcus epidermidis; assay type: functional
[10] = system: Enterococcus durans; assay: Antibacterial activity against Enterococcus durans; assay type: functional

## CC(C)C[C@@H]1OC(=O)[C@H](C(C)C)OC(=O)[C@H](CO)NC(=O)[C@H](C(C)C)NC(=O)[C@H](CC(C)C)N(C)C(=O)[C@H](Cc2ccccc2)NC1=O [TRICHODEPSIPEPTIDE B] (cyclo(F[NMeL]VS[Hiv][Hica(2S)]))
[1]
  IC50: > 10 µM
[2]
  IC50: > 10 µM
[3]
  IC50: > 10 µM
[4]
  IC50: > 10 µM
[5]
  IC50: > 10 µM
[6]
  IC50: > 10 µM
[7]
  IC50: > 10 µM
[8]
  IC50: > 10 µM

## C/C=C\C(=O)O[C@@H]1CC2O[C@@H]3C=C(C)[C@@H](O)C4OCC2(O)[C@@]1(C)[C@]43C (some centres undefined)
[1]
  IC50: > 10 µM
[2]
  IC50: > 10 µM
[3]
  IC50: > 10 µM
[4]
  IC50: > 10 µM

## CC(C)C[C@@H]1NC(=O)[C@H](CC(C)C)N(C)C(=O)[C@H](Cc2ccccc2)NC(=O)[C@H](CC(C)C)OC(=O)[C@H](C(C)C)OC(=O)[C@H](CO)NC1=O [TRICHODEPSIPEPTIDE] (cyclo(F[NMeL]LS[Hiv][Hica(2S)]))
[1]
  IC50: > 10 µM
[2]
  IC50: > 10 µM
[3]
  IC50: > 10 µM
[4]
  IC50: > 10 µM
[5]
  IC50: > 10 µM
[6]
  IC50: > 10 µM
[7]
  IC50: > 10 µM
[8]
  IC50: > 10 µM

## COC(=O)[C@@H]1O[C@@H](O)C(=O)[C@]2(C(O)/C=C(C)/C=C/C=C(\C)CCC=C(C)C)O[C@H]12 (some centres undefined) [TRICHOTHOSPORON A]
[1]
  IC50: > 10 µM
[2]
  IC50: > 10 µM
[3]
  IC50: > 10 µM
[4]
  IC50: > 10 µM

## CC(C)C[C@@H]1OC(=O)[C@H](C)NC(=O)[C@H](C(C)(C)O)OC(=O)[C@H](C)N(C)C(=O)[C@@H](C)NC(=O)[C@@H](Cc2ccccc2)N(C)C1=O [GUANGOMIDE A] (cyclo(A[Hica(2S)][dNMeF][dA][NMeA][X1]))
[9]
  MIC: 100 µg/mL (≈ 162 µM)
[10]
  MIC: 100 µg/mL (≈ 162 µM)
[1]
  EC50: 15 µM
[2]
  EC50: 15 µM
[3]
  EC50: 15 µM
